Source: US20150290280A1, “ANTIMICROBIAL ARTICLES PRODUCED BY ADDITIVE MANUFACTURING” (ORTHOPAEDIC INNOVATION CENTER INC., priority 2012, published 2015)

Columns and labels:
Staphylococcus aureus = assay: Zones of inhibition around 3D-printed coupons on S. aureus plated on Tryptic soy agar (Example 1); format: cell-based; settings: 3D-printed PLA coupon (25 mm diameter) comprising 1% tobramycin; shiny side down; TSA; 72 h at 37° C.
Method: The 1% tobramycin/PLA filament was supplied to the extrusion nozzle of a STRATASYS® MOJO® FDM® 3D printer (STRATASYS and MOJO are registered trademarks of Stratasys Inc., Eden Prairie, Minn., USA) to print replicate test coupons with an extrusion temperature of 205° C. […] Control coupons having the same physical dimensions and appearance as the test coupons, were printed with the STRATASYS® MOJO® FDM® 3D printer by feeding the control PLA filament through the extrusion nozzle at an extrusion temperature of 205° C.
Aliquots of a culture of Staphylococcus aureus grown in Tryptic soy broth (TSB) were plated onto the surface of Tryptic soy agar (TSA) contained within Petri plates. Two test coupons were placed onto the plated S. aureus culture in a Petri plate with one shiny side down and one matte side down. Two control coupons were placed onto the plated S. aureus culture in a Petri plate with one shiny side down and one matte side down. Triplicate plates were prepared with test coupon and with control coupons. The Petri plates were incubated for 72 h at 37° C. after which, the plates were examined for the occurrence of zones of inhibition around the coupons. No inhibition of the growth of S. aureus in the Petri plates receiving the control coupons. […]

S. aureus = assay: Elution of antibiotics from 3D-printed coupons assessed by inhibition of growth of S. aureus on Meuller Hinton agar (Examples 3 and 4); format: cell-based, Staphylococcus aureus; settings: about 72 hrs, 35-37° C., 25 = coupon diameter = no inhibition; for zone of inhibition, articles comprising PLA, antibiotic concentration 1%: 1% w/w antibiotic in PLA coupon; for zone of inhibition, articles comprising PLA, antibiotic concentration 2%: 2% w/w antibiotic in PLA coupon; for zone of inhibition, articles comprising PLA, antibiotic concentration 5%: 5% w/w antibiotic in PLA coupon; for zone of inhibition, articles comprising PCL polymer, antibiotic concentration 1%: 1% w/w antibiotic in PCL coupon; for zone of inhibition, articles comprising PCL polymer, antibiotic concentration 2%: 2% w/w antibiotic in PCL coupon; for zone of inhibition, articles comprising PCL polymer, antibiotic concentration 5%: 5% w/w antibiotic in PCL coupon
Method: Control coupons having the same physical dimensions and appearance as the test coupons, were printed with the […]® MOJO® printer by feeding the control filaments through the extrusion nozzle. The 2% and 5% tobramycin/PLA test coupons were printed with an extrusion temperature of 170° C., while the PLA control coupons and the 1% tobramycin/PLA test coupons were printed with an extrusion temperature of 205° C. The N12 control coupons, the 1%, 2%, and 5% gentamicin/N12 coupons, and the 1%, 2%, and 5% vancomycin/N12 coupons were printed at an extrusion temperature of 195° C. The remaining control coupons and test coupons were printed with an extrusion temperature of 170° C. The elution of antibiotics from the test coupons produced in Example 2 was assessed by the inhibition of the growth of S. aureus on the surfaces of Meuller Hinton agar contained within Petri dishes onto which test coupons placed. S. aureus cultures were grown on TSA amended with 5% sheep blood. A sufficient amount of S. aureus culture was transferred from the TSA culture plates to a 0.85% sterile saline solution to provide a uniform suspension that fell within a 0.5-2.0 McFarland turbidity standard. Aliquots of the S. aureus culture were plated onto Meuller Hinton agar in Petri dishes after which, two test coupons/dish (or alternatively, control coupons) were placed on the agar; one with its shiny side up and the other with its matte side up. The Meuller Hinton agar-containing Petri dishes were then incubated for about 72 hrs at temperatures in the range of about 35° C. to about 37° C. The zones of inhibition around each coupon were then measured and recorded (in mm) A clear zone around a test coupon indicates the inhibition of growth of S. aureus. […] The data shown in Tables 10, 11, and 12 confirm that all three antibiotics tested, i.e., tobramycin, gentamicin, and vancomycin, were eluted from articles printed with extruded antibiotic-containing polymers as evidenced by zones of inhibition of S. aureus cultures by articles comprising PLA polymer (Table 10), inhibition of S. aureus cultures by articles comprising PCL polymer (Table 11), and inhibition of S. aureus cultures by articles comprising HPDE polymer (Table 12). […] The control coupons for this study were taken from the batch of control coupons produced in Example 1. […] The data shown in Table 14 confirm that the three antibiotics were eluted from articles printed with extruded polymers comprising the three antibiotics.

NC[C@H]1O[C@H](O[C@H]2[C@H](O)[C@@H](O[C@H]3O[C@H](CO)[C@@H](O)[C@H](N)[C@H]3O)[C@H](N)C[C@@H]2N)[C@H](N)C[C@@H]1O [Tobramycin, tobramycin]
zones of inhibition in the growth of S. aureus around the shiny surfaces (Staphylococcus aureus): 37.7 mm | zone of inhibition, articles comprising HDPE polymer, antibiotic concentration 1% (S. aureus; 1% w/w antibiotic in HDPE coupon): 27.0 mm | zone of inhibition, articles comprising PLA, antibiotic concentration 1% (S. aureus): 37.7 mm | zone of inhibition, articles comprising HDPE polymer, antibiotic concentration 2% (S. aureus; 2% w/w antibiotic in HDPE coupon): 28.5 mm | zone of inhibition, articles comprising PLA, antibiotic concentration 2% (S. aureus): 27.5 mm | zone of inhibition, articles comprising HDPE polymer, antibiotic concentration 5% (S. aureus; 5% w/w antibiotic in HDPE coupon): 37.5 mm | zone of inhibition, articles comprising PLA, antibiotic concentration 5% (S. aureus): 28 mm

CN[C@H](CC(C)C)C(=O)N[C@H]1C(=O)N[C@@H](CC(N)=O)C(=O)N[C@H]2C(=O)N[C@H]3C(=O)N[C@H](C(=O)N[C@H](C(=O)O)c4cc(O)cc(O)c4-c4cc3ccc4O)[C@H](O)c3ccc(c(Cl)c3)Oc3cc2cc(c3O[C@@H]2O[C@H](CO)[C@@H](O)[C@H](O)[C@H]2O[C@H]2C[C@](C)(N)[C@H](O)[C@H](C)O2)Oc2ccc(cc2Cl)[C@H]1O [Vancomycin, vancomycin]
zone of inhibition, articles comprising PCL polymer, antibiotic concentration 1% (S. aureus): 28.5 mm | zone of inhibition, articles comprising PCL polymer, antibiotic concentration 2% (S. aureus): 25 mm | zone of inhibition, articles comprising PCL polymer, antibiotic concentration 5% (S. aureus): 28.5 mm

gentamicin
zone of inhibition, articles comprising PCL polymer, antibiotic concentration 1% (S. aureus): 32.0 mm | zone of inhibition, articles comprising PLA, antibiotic concentration 1% (S. aureus): 34.0 mm | zone of inhibition, articles comprising PCL polymer, antibiotic concentration 2% (S. aureus): 38.5 mm | zone of inhibition, articles comprising PLA, antibiotic concentration 2% (S. aureus): 26.5 mm | zone of inhibition, articles comprising PCL polymer, antibiotic concentration 5% (S. aureus): 41.0 mm | zone of inhibition, articles comprising PLA, antibiotic concentration 5% (S. aureus): 37.5 mm
